# From the supplement of paper PMC11061612
# Legend:
# SG3199 = compound: CC1=CN2[C@@H](C1)C=NC3=CC(=C(C=C3C2=O)OC)OCCCCCOC4=C(C=C5C(=C4)N=C[C@@H]6CC(=CN6C5=O)C)OC [SG3199]; conditions: max 0.001 µM
# Procedure, shortened: (§1)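 Following 24 hours at 37°C and 5% CO2, cancer cell lines in 1536-well plates with 7.5 μl DMEM/F12 or RPMI and 10% FBS were dosed for 72 hours, final DMSO typically being 0.2%. CellTiter-Glo 2.0 luminescence, scaled between blank-well and DMSO-well means, gave the viability readout. Dose responses were fitted to a two-parameter logistic curve with a non-linear mixed effects model, and the single-agent IC50 was derived from this fit.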
# Palbociclib = compound: CC(=O)c1c(C)c2cnc(Nc3ccc(N4CCNCC4)cn3)nc2n(C2CCCC2)c1=O [Palbociclib]; conditions: max 10 µM
# Procedure, shortened: as §1
# AZD6738 = compound: C[C@@H]1COCCN1C2=NC(=NC(=C2)C3(CC3)[S@](=N)(=O)C)C4=C5C=CNC5=NC=C4 [AZD6738]; conditions: max 10 µM
# Procedure, shortened: as §1
# AZD5991 = compound: Cc1c2c(nn1C)CSCc1cc(n(C)n1)CSc1cc(c3ccccc3c1)OCCCc1c(C(=O)O)n(C)c3c-2c(Cl)ccc13 [AZD5991]; conditions: max 1 µM
# Procedure, shortened: as §1
# AZD4320 = compound: CN(CC[C@H](CSC1=CC=CC=C1)NC2=C(C=C(C=C2)S(=O)(=O)NC(=O)C3=CC=C(C=C3)N4CCC(CC4)[C@H](C5=CC=CC=C5C6=CC=C(C=C6)Cl)O)S(=O)(=O)C(F)(F)F)CCO [AZD4320]; conditions: max 1 µM
# Procedure, shortened: as §1
# Gefitinib = compound: COc1cc2ncnc(Nc3ccc(F)c(Cl)c3)c2cc1OCCCN1CCOCC1 [Gefitinib]; conditions: max 10 µM
# Procedure, shortened: as §1
# Dasatinib = compound: CC1=C(C(=CC=C1)Cl)NC(=O)C2=CN=C(S2)NC3=CC(=NC(=N3)C)N4CCN(CC4)CCO [Dasatinib]; conditions: max 2 µM
# Procedure, shortened: as §1
# AZD1390 = compound: CC(C)n1c(=O)n(C)c2cnc3cc(F)c(-c4ccc(OCCCN5CCCCC5)nc4)cc3c21 [AZD1390]; conditions: max 0.3 µM
# Procedure, shortened: as §1
# AZD5153 = compound: COc1nnc2ccc(N3CCC(c4ccc(OCCN5CCN(C)C(=O)[C@H]5C)cc4)CC3)nn12 [AZD5153]; conditions: max 1 µM
# Procedure, shortened: as §1
# Doxorubicin = compound: COc1cccc2c1C(=O)c1c(O)c3c(c(O)c1C2=O)C[C@@](O)(C(=O)CO)C[C@@H]3O[C@H]1C[C@H](N)[C@H](O)[C@H](C)O1 [Doxorubicin]; conditions: max 1 µM
# Procedure, shortened: as §1
# Taselisib = compound: Cc1nc(-c2cn3c(n2)-c2ccc(-c4cnn(C(C)(C)C(N)=O)c4)cc2OCC3)n(C(C)C)n1 [Taselisib]; conditions: max 10 µM
# Procedure, shortened: as §1
# Selumetinib = compound: Cn1cnc2c(F)c(Nc3ccc(Br)cc3Cl)c(C(=O)NOCCO)cc21 [Selumetinib]; conditions: max 10 µM
# Procedure, shortened: as §1
# Venetoclax = compound: CC1(C)CCC(CN2CCN(c3ccc(C(=O)NS(=O)(=O)c4ccc(NCC5CCOCC5)c([N+](=O)[O-])c4)c(Oc4cnc5[nH]ccc5c4)c3)CC2)=C(c2ccc(Cl)cc2)C1 [Venetoclax]; conditions: max 1 µM
# Procedure, shortened: as §1
# AZD7648 = compound: Cc1cc2ncnn2cc1Nc1ncc2c(n1)n(C1CCOCC1)c(=O)n2C [AZD7648]; conditions: max 10 µM
# Procedure, shortened: as §1
# Capivasertib = compound: C1CN(CCC1(C(=O)N[C@@H](CCO)C2=CC=C(C=C2)Cl)N)C3=NC=NC4=C3C=CN4 [Capivasertib]; conditions: max 10 µM
# Procedure, shortened: as §1
# Trametinib = compound: CC(=O)Nc1cccc(-n2c(=O)n(C3CC3)c(=O)c3c(Nc4ccc(I)cc4F)n(C)c(=O)c(C)c32)c1 [Trametinib]; conditions: max 1 µM
# Procedure, shortened: as §1
# Prexasertib = compound: COc1cccc(OCCCN)c1-c1cc(Nc2cnc(C#N)cn2)n[nH]1 [Prexasertib]; conditions: max 1 µM
# Procedure, shortened: as §1
# Savolitinib = compound: C[C@@H](c1ccc2nccn2c1)n1nnc2ncc(-c3cnn(C)c3)nc21 [Savolitinib]; conditions: max 1 µM
# Procedure, shortened: as §1
# SN-38 = compound: CCc1c2c(nc3ccc(O)cc13)-c1cc3c(c(=O)n1C2)COC(=O)[C@]3(O)CC [SN-38]; conditions: max 0.3 µM
# Procedure, shortened: as §1
# Lapatinib = compound: CS(=O)(=O)CCNCc1ccc(-c2ccc3ncnc(Nc4ccc(OCc5cccc(F)c5)c(Cl)c4)c3c2)o1 [Lapatinib]; conditions: max 10 µM
# Procedure, shortened: as §1
# Crizotinib = compound: C[C@@H](Oc1cc(-c2cnn(C3CCNCC3)c2)cnc1N)c1c(Cl)ccc(F)c1Cl [Crizotinib]; conditions: max 10 µM
# Procedure, shortened: as §1
# AZD8186 = compound: C[C@@H](Nc1cc(F)cc(F)c1)c1cc(C(=O)N(C)C)cc2c(=O)cc(N3CCOCC3)oc12 [AZD8186]; conditions: max 3 µM
# Procedure, shortened: as §1
# AZD1775 = compound: C=CCn1c(=O)c2cnc(Nc3ccc(N4CCN(C)CC4)cc3)nc2n1-c1cccc(C(C)(C)O)n1 [AZD1775]; conditions: max 3 µM
# Procedure, shortened: as §1
# AZD2811 = compound: CCN(CCO)CCCOc1ccc2c(Nc3cc(CC(=O)Nc4cccc(F)c4)[nH]n3)ncnc2c1 [AZD2811]; conditions: max 1 µM
# Procedure, shortened: as §1
# Olaparib = compound: O=C(c1cc(Cc2n[nH]c(=O)c3ccccc23)ccc1F)N1CCN(C(=O)C2CC2)CC1 [Olaparib]; conditions: max 10 µM
# Procedure, shortened: as §1
# Alisertib = compound: COc1cc(Nc2ncc3c(n2)-c2ccc(Cl)cc2C(c2c(F)cccc2OC)=NC3)ccc1C(=O)O [Alisertib]; conditions: max 10 µM
# Procedure, shortened: as §1
# AZD0156 = compound: CN(C)CCCOc1ccc(-c2ccc3ncc4c(c3c2)n(C2CCOCC2)c(=O)n4C)cn1 [AZD0156]; conditions: max 3 µM
# Procedure, shortened: as §1
# MK-2206 = compound: NC1(c2ccc(-c3nc4ccn5c(=O)[nH]nc5c4cc3-c3ccccc3)cc2)CCC1 [MK-2206]; conditions: max 10 µM
# Procedure, shortened: as §1
Cell Line,"IC50, cell viability 72 h (SG3199) [µM]","IC50, cell viability 72 h (Palbociclib) [µM]","IC50, cell viability 72 h (AZD6738) [µM]","IC50, cell viability 72 h (AZD5991) [µM]","IC50, cell viability 72 h (AZD4320) [µM]","IC50, cell viability 72 h (Gefitinib) [µM]","IC50, cell viability 72 h (Dasatinib) [µM]","IC50, cell viability 72 h (AZD1390) [µM]","IC50, cell viability 72 h (AZD5153) [µM]","IC50, cell viability 72 h (Doxorubicin) [µM]","IC50, cell viability 72 h (Taselisib) [µM]","IC50, cell viability 72 h (Selumetinib) [µM]","IC50, cell viability 72 h (Venetoclax) [µM]","IC50, cell viability 72 h (AZD7648) [µM]","IC50, cell viability 72 h (Capivasertib) [µM]","IC50, cell viability 72 h (Trametinib) [µM]","IC50, cell viability 72 h (Prexasertib) [µM]","IC50, cell viability 72 h (Savolitinib) [µM]","IC50, cell viability 72 h (SN-38) [µM]","IC50, cell viability 72 h (Lapatinib) [µM]","IC50, cell viability 72 h (Crizotinib) [µM]","IC50, cell viability 72 h (AZD8186) [µM]","IC50, cell viability 72 h (AZD1775) [µM]","IC50, cell viability 72 h (AZD2811) [µM]","IC50, cell viability 72 h (Olaparib) [µM]","IC50, cell viability 72 h (Alisertib) [µM]","IC50, cell viability 72 h (AZD0156) [µM]","IC50, cell viability 72 h (MK-2206) [µM]"
639-V (Bladder Carcinoma),> 0.001,> 10,> 10,> 1,> 1,> 10,1.38,> 0.3,0.257,0.574,2.46,> 10,> 1,> 10,> 10,> 1,0.948,> 1,0.00366,> 10,> 10,> 3,2.21,> 1,> 10,2.98,> 3,–
CAL-51 (Breast Carcinoma),> 0.001,> 10,1.51,> 1,> 1,> 10,> 2,> 0.3,0.469,0.415,1.3,> 10,> 1,> 10,4.41,> 1,0.0253,> 1,0.053,> 10,> 10,> 3,0.583,> 1,> 10,6.96,> 3,–
COLO-829 (Melanoma),> 0.001,> 10,> 10,> 1,> 1,> 10,0.598,> 0.3,> 1,> 1,> 10,8.42,> 1,> 10,> 10,0.279,> 1,> 1,> 0.3,> 10,> 10,> 3,> 3,> 1,> 10,> 10,> 3,> 10
HCC-15 (Squamous Cell Lung Carcinoma),> 0.001,> 10,> 10,> 1,0.216,> 10,> 2,> 0.3,> 1,> 1,> 10,4.44,> 1,> 10,> 10,0.164,> 1,> 1,> 0.3,> 10,> 10,> 3,1.35,0.657,> 10,0.181,> 3,–
KARPAS-231 (B-Cell Non-Hodgkin's Lymphoma),> 0.001,> 10,6.03,0.0314,0.0212,> 10,> 2,> 0.3,> 1,0.899,> 10,> 10,0.007,> 10,> 10,> 1,0.0125,> 1,0.00168,> 10,> 10,> 3,0.123,0.264,> 10,1.02,> 3,–
KYSE-410 (Esophageal Squamous Cell Carcinoma),> 0.001,> 10,> 10,> 1,> 1,> 10,1.9,> 0.3,> 1,> 1,2.71,> 10,> 1,> 10,> 10,> 1,0.952,> 1,> 0.3,8.74,> 10,> 3,2.21,> 1,> 10,> 10,> 3,–
LB771-HNC (Head and Neck Carcinoma),> 0.001,> 10,> 10,> 1,> 1,> 10,> 2,> 0.3,> 1,> 1,2.67,> 10,> 1,> 10,> 10,> 1,0.367,> 1,> 0.3,> 10,> 10,> 3,0.742,> 1,> 10,6.25,> 3,–
MHH-PREB-1 (B-Cell Non-Hodgkin's Lymphoma),> 0.001,> 10,2.08,> 1,> 1,> 10,> 2,> 0.3,0.756,0.317,> 10,> 10,> 1,> 10,> 10,> 1,0.00891,> 1,0.0584,> 10,8.08,> 3,0.935,> 1,> 10,> 10,> 3,–
NCI-H747 (Colorectal Carcinoma),> 0.001,> 10,> 10,> 1,> 1,> 10,0.542,> 0.3,0.101,> 1,2.38,0.309,> 1,> 10,4.66,0.0054,> 1,> 1,> 0.3,> 10,> 10,> 3,2.51,> 1,> 10,> 10,> 3,2.2
OVCAR-8 (Ovarian Carcinoma),> 0.001,> 10,6.14,> 1,> 1,> 10,1.54,> 0.3,0.198,0.257,> 10,> 10,> 1,> 10,> 10,> 1,0.0134,> 1,0.0187,> 10,> 10,> 3,1.37,> 1,> 10,7.63,> 3,–
SW626 (Colorectal Carcinoma),> 0.001,> 10,> 10,> 1,> 1,> 10,> 2,> 0.3,0.15,> 1,> 10,2.81,> 1,> 10,> 10,0.111,0.127,> 1,> 0.3,> 10,> 10,> 3,1.49,> 1,> 10,> 10,> 3,–
TE-4 (Esophageal Squamous Cell Carcinoma),> 0.001,> 10,> 10,> 1,> 1,0.99,> 2,> 0.3,> 1,> 1,0.381,> 10,> 1,> 10,2.91,0.125,0.334,> 1,> 0.3,0.264,> 10,> 3,1.02,> 1,> 10,> 10,> 3,–
UMC-11 (Other Solid Carcinomas),> 0.001,> 10,> 10,> 1,> 1,> 10,> 2,> 0.3,0.289,> 1,> 10,> 10,> 1,> 10,> 10,> 1,0.0575,> 1,> 0.3,> 10,5.91,> 3,> 3,0.103,> 10,1.21,> 3,–
